Source: patent US4892875A, “Substituted heterocyclylalkyl esters of 1,4-dihydropyridine-3,5-dicarboxylic acids” (Takeda Chemical Industries, Ltd., priority 1982, dated 1990)
Like-named read-outs stand apart in the source and are kept apart here.

What was measured:
[1] = test system: spontaneously hypertensive rats; experiment: Antihypertensive action (systolic blood pressure, caudal artery) in male spontaneously hypertensive rats; type: in vivo, rat; settings: 10 mg/kg oral; for Change in blood pressure 1 hr. after treatment / Change in blood pressure 5 hrs. after treatment: after minus before medication, * P < 0.05 vs control; for Duration of antihypertensive effect: measured 1, 5, 8 and 24 hours after administration
Protocol: Male spontaneously hypertensive rats aged 10 to 11 weeks were used (in groups of 3 to 6 individuals). […] Each test compound was suspended in a 5% solution of gum arabic and orally administered. The dosage was 10 mg/kg for all compounds. Animals in a control group was given the above solution of gum arabic only.

[2] = test system: spontaneously hypertensive rats; experiment: Renal blood flow increasing effect (renal circulation improving effect) in anesthetized male spontaneously hypertensive rats; type: in vivo; settings: Rattus norvegicus, 0.01 mg/kg intravenous, * P < 0.05 vs control
Protocol: Male spontaneously hypertensive rats aged 10 to 11 weeks (3 to 6 animals per group) were anesthetized with pentobarbital and used. After laparotomy, an electromagnetic flowmeter probe (Narco) was fitted to the left renal artery and the renal blood flow was continuously recorded on a polygraph (Sanei Sokki K.K.). […] Each test compound was dissolved in polyethylene glycol 400 to prepare a stock solution. This stock solution was diluted five-fold with physiological saline and the dilution was intravenously administered to rats in a volume of 0.5 ml/kg body weight. The dosage was 0.01 mg/kg for all test compounds. The renal blood flow was measured over a period of 40 minutes following the medication. The values shown are: [formula]

SMILES | Change in blood pressure 1 hr. after treatment [1] [mmHg] | Change in blood pressure 5 hrs. after treatment [1] [mmHg] | Duration of antihypertensive effect [1] | change in vivo at 0.01 mg/kg ([2]; 1 min, 1 minute, read-out: Change in renal blood flow, 1 Minute after medication) [%] | change in vivo at 0.01 mg/kg ([2]; 20 min, 20 minutes, read-out: Change in renal blood flow, 20 Minutes after medication) [%] | change in vivo at 0.01 mg/kg ([2]; 40 min, 40 minutes, read-out: Change in renal blood flow, 40 Minutes after medication) [%]
COC(=O)C1=C(C)NC(C)=C(C(=O)OCCN2CCN(C(c3ccccc3)c3ccccc3)CC2)C1c1cccc([N+](=O)[O-])c1.Cl.Cl (stereo not drawn) [Example 1, 2-(4-benzhydryl-1-piperazinyl)ethyl methyl 2,6-dimethyl-4-(3-nitrophenyl)-1,4-dihydropyridine-3,5-dicarboxylate dihydrochloride] | -89 | -91 | > 24 h | 10.4 | 13.4 | 12.8
CCOC(=O)C1=C(C)NC(C)=C(C(=O)OCCN2CCN(C(c3ccc(C)cc3)c3ccc(C)cc3)CC2)C1c1cccc(Cl)c1Cl (stereo not drawn) [Example 24, 2-[4-(4,4'-dimethylbenzhydryl)-1-piperazinyl]ethyl ethyl 4-(2,3-dichlorophenyl)-2,6-dimethyl-1,4-dihydropyridine-3,5-dicarboxylate] | -49 | -30 | ca. 8 hrs. | – | – | –
CCOC(=O)C1=C(C)NC(C)=C(C(=O)OCCN2CCN(C(c3ccccc3)c3ccccc3)CC2)C1c1cccc(Cl)c1 (stereo not drawn) [Example 28, 2-(4-benzhydryl-1-piperazinyl)ethyl ethyl 4-(3-chlorophenyl)-2,6-dimethyl-1,4-dihydropyridine-3,5-dicarboxylate] | -93 | -75 | 8 to 24 h | – | – | –
COCCOC(=O)C1=C(C)NC(C)=C(C(=O)OCCN2CCN(C(c3ccccc3)c3ccccc3)CC2)C1c1cccc([N+](=O)[O-])c1 (stereo not drawn) [Example 30, 2-(4-benzhydryl-1-piperazinyl)ethyl 2-methoxyethyl 2,6-dimethyl-4-(3-nitrophenyl)-1,4-dihydropyridine-3,5-dicarboxylate] | -48 | -31 | 8 to 24 h | – | – | –
CCOC(=O)C1=C(C)NC(C)=C(C(=O)OCCN2CCN(C(c3ccc(C)cc3)c3ccc(C)cc3)CC2)C1c1cccc(C(F)(F)F)c1 (stereo not drawn) [Example 32, 2-[4-(4,4'-dimethylbenzhydryl)-1-piperazinyl]ethyl ethyl 2,6-dimethyl-4-(3-trifluoromethylphenyl)-1,4-dihydropyridine-3,5-dicarboxylate] | -46 | -48 | 8 to 24 h | – | – | –
CCOC(=O)C1=C(C)NC(C)=C(C(=O)OCCN2CCN(C(c3ccc(C)cc3)c3ccc(C)cc3)CC2)C1c1cccc(Cl)c1 (stereo not drawn) [Example 33, 2-[4-(4,4'-dimethylbenzhydryl)-1-piperazinyl]ethyl ethyl 4-(3-chlorophenyl)-2,6-dimethyl-1,4-dihydropyridine-3,5-dicarboxylate] | -51 | -60 | 8 to 24 h | – | – | –
COC(=O)C1=C(C)NC(C)=C(C(=O)OCCCN2CCN(C(c3ccccc3)c3ccccc3)CC2)C1c1cccc(Cl)c1 (stereo not drawn) [Example 38, 3-(4-benzhydryl-1-piperazinyl)propyl methyl 4-(3-chlorophenyl)-2,6-dimethyl-1,4-dihydropyridine-3,5-dicarboxylate] | -50 | -42 | 8 to 24 h | – | – | –
CCOC(=O)C1=C(C)NC(C)=C(C(=O)OCCN2CCN(c3ccc(F)cc3)CC2)C1c1cccc([N+](=O)[O-])c1 (stereo not drawn) [Example 41, ethyl 2-[4-(4-fluorophenyl)-1-piperazinyl]ethyl 2,6-dimethyl-4-(3-nitrophenyl)-1,4-dihydropyridine-3,5-dicarboxylate] | -55 | -67 | ca. 24 hrs. | – | – | –
COC(=O)C1=C(C)NC(C)=C(C(=O)OCCN2CCN(c3ccc(F)cc3)CC2)C1c1cccc(Cl)c1Cl (stereo not drawn) [Example 43, 2-[4-(4-fluorophenyl)-1-piperazinyl]ethyl methyl 4-(2,3-dichlorophenyl)-2,6-dimethyl-1,4-dihydropyridine-3,5-dicarboxylate] | -54 | -44 | 8 to 24 h | – | – | –
COC(=O)C1=C(C)NC(C)=C(C(=O)OCCN2CCN(c3ccccc3Cl)CC2)C1c1cccc([N+](=O)[O-])c1 (stereo not drawn) [Example 44, 2-[4-(2-chlorophenyl)-1-piperazinyl]ethyl methyl 2,6-dimethyl-4-(3-nitrophenyl)-1,4-dihydropyridine-3,5-dicarboxylate] | -44 | -22 | 8 to 24 h | – | – | –
COC(=O)C1=C(C)NC(C)=C(C(=O)OCCN2CCN(c3ccc(Cl)cc3)CC2)C1c1cccc([N+](=O)[O-])c1 (stereo not drawn) [Example 45, 2-[4-(4-chlorophenyl)-1-piperazinyl]ethyl methyl 2,6-dimethyl-4-(3-nitrophenyl)-1,4-dihydropyridine-3,5-dicarboxylate] | -57 | -42 | 8 to 24 h | – | – | –
COC(=O)C1=C(C)NC(C)=C(C(=O)OCCN2CCN(c3cccc(Cl)c3)CC2)C1c1cccc(Cl)c1Cl (stereo not drawn) [Example 46] | -44 | -43 | 8 to 24 h | – | – | –
COC(=O)C1=C(C)NC(C)=C(C(=O)OCCN2CCN(c3ccc(Cl)cc3)CC2)C1c1cccc(Cl)c1 (stereo not drawn) [Example 50, 2-[4-(4-chlorophenyl)-1-piperazinyl]ethyl methyl 4-(3-chlorophenyl)-2,6-dimethyl-1,4-dihydropyridine-3,5-dicarboxylate] | -58 | -37 | 8 to 24 h | – | – | –
COC(=O)C1=C(C)NC(C)=C(C(=O)OCCN2CCN(c3ccccc3C)CC2)C1c1cccc([N+](=O)[O-])c1 (stereo not drawn) [Example 51, methyl 2-[4-(2-methylphenyl)-1-piperazinyl]ethyl 2,6-dimethyl-4-(3-nitrophenyl)-1,4-dihydropyridine-3,5-dicarboxylate] | -69 | -54 | 8 to 24 h | – | – | –
COC(=O)C1=C(C)NC(C)=C(C(=O)OCCN2CCN(c3ccccc3C)CC2)C1c1cccc(Cl)c1 (stereo not drawn) [Example 52, methyl 2-[4-(2-methylphenyl)-1-piperazinyl]ethyl 4-(3-chlorophenyl)-2,6-dimethyl-1,4-dihydropyridine-3,5-dicarboxylate] | -54 | -14 | ca. 8 hrs. | – | – | –
COC(=O)C1=C(C)NC(C)=C(C(=O)OCCN2CCN(c3ccccc3)CC2)C1c1cccc([N+](=O)[O-])c1 (stereo not drawn) [Example 53, methyl 2-(4-phenyl-1-piperazinyl)ethyl 2,6-dimethyl-4-(3-nitrophenyl)-1,4-dihydropyridine-3,5-dicarboxylate] | -60 | -34 | ca. 8 hrs. | – | – | –
COC(=O)C1=C(C)NC(C)=C(C(=O)OCCN2CCN(c3ccc(C)c(Cl)c3)CC2)C1c1cccc([N+](=O)[O-])c1 (stereo not drawn) [Example 57, 2-[4-(3-chloro-4-methylphenyl)-1-piperazinyl]ethyl methyl 2,6-dimethyl-4-(3-nitrophenyl)-1,4-dihydropyridine-3,5-dicarboxylate] | -85 | -69 | 8 to 24 h | – | – | –
COC(=O)C1=C(C)NC(C)=C(C(=O)OCCN2CCN(c3cccc(Cl)c3Cl)CC2)C1c1cccc([N+](=O)[O-])c1 (stereo not drawn) [Example 58, 2-[4-(2,3-dichlorophenyl)-1-piperazinyl]ethyl methyl 2,6-dimethyl-4-(3-nitrophenyl)-1,4-dihydropyridine-3,5-dicarboxylate] | -27 | -39 | 8 to 24 h | – | – | –
COC(=O)C1=C(C)NC(C)=C(C(=O)OCCN2CCN(C(c3ccccc3)c3ccccc3)CC2)C1c1cccc2nonc12.Cl.Cl (stereo not drawn) [Example 60, 2-(4-benzhydryl-1-piperazinyl)ethyl methyl 4-(2,1,3-benzoxadiazol-4-yl)-2,6-dimethyl-1,4-dihydropyridine-3,5-dicarboxylate dihydrochloride] | -98 | -90 | 8 to 24 h | – | – | –
